Here are results for 14 compounds from ChEMBL document CHEMBL1135869, “Peptide inhibitors of CDK2-cyclin A that target the cyclin recruitment-site: structural variants of the C-terminal Phe” (Bioorg Med Chem Lett, 2002).

pIC50: −log10 of the molar value. Starred links: 1 amine or outer side, 2 acyl side, 3 side chain; linkers in the order of their positions; H or OH if unused. Non-standard residues stand in square brackets, D forms with d. Residues, ends and D or L forms follow the SMILES beside them. X3 = CC(=O)O[C@@H](c1ccccc1)[C@@H](N[*:1])C(=O)[*:2]; X1 = CC(=O)O[C@H](c1ccccc1)[C@H](N[*:1])C(=O)[*:2]; X2 = O=C(/C(=C/c1ccccc1)N[*:1])[*:2]; Phe(ol) = N[C@H](CO)Cc1ccccc1

The target in assay [1] is Cyclin-dependent kinase 2/cyclin A (Homo sapiens, UniProt P24941). Kind of assay: In vitro inhibition of CDK2-cyclin A kinase activity on retinoblastoma protein. The format is protein-complex assay.
The nature of assay [2]: Inhibition of competitive binding to cyclin-A kinase complex.
The nature of assay [3]: Inhibition of p21WAF1 peptide recruitment to CDK 2/cyclin-A complex.

By pIC50 is commonly meant the IC50 on a negative log10 scale, so that one unit is a factor of ten. Read a low pIC50 as a high IC50.

In assay [1], `CC[C@H](C)[C@H](NC(=O)[C@H](CC(C)C)NC(=O)[C@H](CCCNC(=N)N)NC(=O)[C@H](CCCNC(=N)N)NC(=O)[C@H](CCCCN)NC(=O)[C@H](C)NC(=O)[C@@H](N)Cc1cnc[nH]1)C(=O)N[C@@H](C(=O)O)[C@@H](OC(C)=O)c1ccccc1` showed a negative logarithm of the IC50 (pIC50) of 6.70.
Regarding `CC[C@H](C)[C@H](NC(=O)[C@H](CC(C)C)NC(=O)[C@H](CCCN=C(N)N)NC(=O)[C@H](CCCN=C(N)N)NC(=O)[C@H](CCCCN)NC(=O)[C@H](CO)NC(=O)[C@@H](N)Cc1c[nH]cn1)C(=O)N[C@@H](Cc1ccccc1)C(N)=O`, the negative-log IC50 (pIC50) in assay [1] is 5.47; in assay [2] it was 5.37.
Take `CC[C@H](C)[C@H](NC(=O)[C@H](CC(C)C)NC(=O)[C@H](CCCN=C(N)N)NC(=O)[C@H](CCCN=C(N)N)NC(=O)[C@H](CCCCN)NC(=O)[C@H](CO)NC(=O)[C@@H](N)Cc1c[nH]cn1)C(=O)N[C@H](C(=O)O)[C@H](O)c1ccccc1`: the values for the negative-log IC50 (pIC50) in assay [3], in assay [1] and in assay [2] were 6.72, 6.25 and 6.60, respectively.
For the compound `CC[C@H](C)[C@H](NC(=O)[C@H](CC(C)C)NC(=O)[C@H](CCCN=C(N)N)NC(=O)[C@H](CCCN=C(N)N)NC(=O)[C@H](CCCCN)NC(=O)[C@H](CO)NC(=O)[C@@H](N)Cc1c[nH]cn1)C(=O)N[C@H](CO)Cc1ccccc1`, the figures for the pIC50 in assay [3] and in assay [1] were 6.51 and 6.37, respectively.
For `CC[C@H](C)[C@H](NC(=O)[C@H](CC(C)C)NC(=O)[C@H](CCCN=C(N)N)NC(=O)[C@H](CCCN=C(N)N)NC(=O)[C@H](CCCCN)NC(=O)[C@H](C)NC(=O)[C@@H](N)Cc1c[nH]cn1)C(=O)N[C@@H](C(=O)O)[C@@H](O)c1ccccc1`, the negative logarithm of the IC50 (pIC50) in assay [3] was 6.96; in assay [2], 6.92.
For `CC[C@H](C)[C@H](NC(=O)[C@H](CC(C)C)NC(=O)[C@H](CCCN=C(N)N)NC(=O)[C@H](CCCN=C(N)N)NC(=O)[C@H](CCCCN)NC(=O)[C@H](CO)NC(=O)[C@@H](N)Cc1c[nH]cn1)C(=O)N[C@@H](C(=O)O)[C@@H](O)c1ccccc1`, the pIC50 in assay [3] is 6.15; in assay [1], 5.92; in assay [2], 6.12.
Consider `CC[C@H](C)[C@H](NC(=O)[C@H](CC(C)C)NC(=O)[C@H](CCCN=C(N)N)NC(=O)[C@H](CCCN=C(N)N)NC(=O)[C@H](CCCCN)NC(=O)[C@H](C)NC(=O)[C@@H](N)Cc1c[nH]cn1)C(=O)N[C@H](C(=O)O)[C@H](O)c1ccccc1`, for which the results for the negative-log IC50 (pIC50) in assay [3] and in assay [2] were 7.55 and 7.13, respectively.
As to `CC[C@H](C)[C@H](NC(=O)[C@H](CC(C)C)NC(=O)[C@H](CCCN=C(N)N)NC(=O)[C@H](CCCN=C(N)N)NC(=O)[C@H](CCCCN)NC(=O)[C@H](C)NC(=O)[C@@H](N)Cc1c[nH]cn1)C(=O)N[C@H](CO)Cc1ccccc1` (H-HAKRRLI[Phe(ol)]), the pIC50 was 7.74 in assay [3] and 7.66 in assay [2].
On to `CC[C@H](C)[C@H](NC(=O)[C@H](CC(C)C)NC(=O)[C@H](CCCN=C(N)N)NC(=O)[C@H](CCCN=C(N)N)NC(=O)[C@H](CCCCN)NC(=O)[C@H](C)NC(=O)[C@@H](N)Cc1c[nH]cn1)C(=O)N[C@H](C(=O)O)[C@H](OC(C)=O)c1ccccc1` (H-HAKRRLI[X1]-OH), for which the values for the pIC50 in assay [3], in assay [1] and in assay [2] were 6.62, 6.49 and 6.64, respectively.
In the same order, the values of `CC[C@H](C)[C@H](NC(=O)[C@H](CC(C)C)NC(=O)[C@H](CCCN=C(N)N)NC(=O)[C@H](CCCN=C(N)N)NC(=O)[C@H](CCCCN)NC(=O)[C@H](C)NC(=O)[C@@H](N)Cc1c[nH]cn1)C(=O)N/C(=C\c1ccccc1)C(=O)O` (H-HAKRRLI[X2]-OH) are 7.27, 7.15 and 7.22.
As to `CC[C@H](C)[C@H](NC(=O)[C@H](CC(C)C)NC(=O)[C@H](CCCN=C(N)N)NC(=O)[C@H](CCCN=C(N)N)NC(=O)[C@H](CCCCN)NC(=O)[C@H](C)NC(=O)[C@@H](N)Cc1c[nH]cn1)C(=O)N[C@@H](C(=O)O)[C@@H](OC(C)=O)c1ccccc1` (H-HAKRRLI[X3]-OH), the pIC50 in assay [3] is 6.80; in assay [2], 6.72.
The corresponding values for `CC[C@H](C)[C@H](NC(=O)[C@H](CC(C)C)NC(=O)[C@H](CCCN=C(N)N)NC(=O)[C@H](CCCN=C(N)N)NC(=O)[C@H](CCCCN)NC(=O)[C@H](CO)NC(=O)[C@@H](N)Cc1c[nH]cn1)C(=O)N[C@H](C(=O)O)[C@H](OC(C)=O)c1ccccc1` (H-HSKRRLI[X1]-OH) are 6.10 and 5.88.
`CC[C@H](C)[C@H](NC(=O)[C@H](CC(C)C)NC(=O)[C@H](CCCN=C(N)N)NC(=O)[C@H](CCCN=C(N)N)NC(=O)[C@H](CCCCN)NC(=O)[C@H](CO)NC(=O)[C@@H](N)Cc1c[nH]cn1)C(=O)N/C(=C\c1ccccc1)C(=O)O` (H-HSKRRLI[X2]-OH): the negative-log IC50 (pIC50) was 6.66 in assay [3], 5.89 in assay [1] and 6.70 in assay [2].
In the case of `CC[C@H](C)[C@H](NC(=O)[C@H](CC(C)C)NC(=O)[C@H](CCCN=C(N)N)NC(=O)[C@H](CCCN=C(N)N)NC(=O)[C@H](CCCCN)NC(=O)[C@H](CO)NC(=O)[C@@H](N)Cc1c[nH]cn1)C(=O)N[C@@H](C(=O)O)[C@@H](OC(C)=O)c1ccccc1` (H-HSKRRLI[X3]-OH), the pIC50 was 6.22 in assay [3] and 5.74 in assay [2].
